{
  "source": "patent US5883257A",
  "about": "“N-piperidinyl- and N-tetrahydropyridinyl-2-anthracenecarboxamides: dopamine receptor subtype specific ligands” (Neurogen Corporation, priority 1997, dated 1999)",
  "key": {"[1]": {"target": "dopamine D3 receptor (Chlorocebus aethiops, UniProt P52703)", "sequence (P52703 whole entry)": "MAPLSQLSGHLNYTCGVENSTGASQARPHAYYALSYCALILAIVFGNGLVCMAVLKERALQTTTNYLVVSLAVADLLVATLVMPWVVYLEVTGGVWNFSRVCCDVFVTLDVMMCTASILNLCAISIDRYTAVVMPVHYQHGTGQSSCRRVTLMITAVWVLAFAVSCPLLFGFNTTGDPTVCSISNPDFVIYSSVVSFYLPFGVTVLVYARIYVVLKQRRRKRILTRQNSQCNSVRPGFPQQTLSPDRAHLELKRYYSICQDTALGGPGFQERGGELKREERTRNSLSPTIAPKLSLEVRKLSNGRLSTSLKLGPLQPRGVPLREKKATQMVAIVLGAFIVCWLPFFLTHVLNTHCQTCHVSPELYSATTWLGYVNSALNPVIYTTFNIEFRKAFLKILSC", "assay": "D3 receptor binding assay (displacement of 3H-YM 09151-2)", "parameters": "species or system African Green monkey", "settings": "0.5 nM 3H-YM 09151-2; COS cells with recombinant D3 receptors; 0.05M Tris HCl, 100 mM NaCl; nonspecific: 1 mM spiperone"}, "[2]": {"target": "dopamine D2 receptor (Chlorocebus aethiops, UniProt P52702)", "sequence (P52702 whole entry)": "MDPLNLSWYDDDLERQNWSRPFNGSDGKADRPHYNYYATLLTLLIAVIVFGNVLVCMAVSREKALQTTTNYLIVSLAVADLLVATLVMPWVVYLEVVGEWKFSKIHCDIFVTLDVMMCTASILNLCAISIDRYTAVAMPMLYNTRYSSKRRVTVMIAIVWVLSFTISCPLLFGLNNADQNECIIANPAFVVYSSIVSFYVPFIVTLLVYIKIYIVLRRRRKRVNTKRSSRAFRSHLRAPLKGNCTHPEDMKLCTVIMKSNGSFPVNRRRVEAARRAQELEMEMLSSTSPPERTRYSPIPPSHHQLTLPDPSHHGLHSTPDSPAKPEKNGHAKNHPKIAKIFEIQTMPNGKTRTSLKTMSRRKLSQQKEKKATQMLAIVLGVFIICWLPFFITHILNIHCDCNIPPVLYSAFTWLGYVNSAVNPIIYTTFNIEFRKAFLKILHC", "assay": "D2 receptor binding assay (displacement of 3H-YM 09151-2)", "parameters": "species or system African Green monkey", "settings": "0.5 nM 3H-YM 09151-2; COS cells with recombinant D2 receptors; 0.05M Tris HCl, 100 mM NaCl; nonspecific: 1 mM spiperone"}},
  "note": "pKi: −log10 of the molar value. Where a name gives a salt, the structure may show the parent alone.",
  "data": [
    {"smiles": "O=C(NCCCCN1CCN(c2cccc(Cl)c2Cl)CC1)c1ccc2cc3ccccc3cc2c1", "note": "[Compound 1, N-{4-[4-(2,3-Dichlorophenyl)-1-piperazinyl]butyl}-2-anthracenecarboxamide]", "values": [
      {"measurement": "pKi", "setting": "[1]", "value": 8.15},
      {"measurement": "pKi", "setting": "[2]", "value": 5.96}
    ]},
    {"smiles": "O=C(NCCCCN1CCN(c2cccc3ccccc23)CC1)c1ccc2cc3ccccc3cc2c1", "note": "[Compound 2, N-{4-[4-(1-Naphthyl)-1-piperazinyl]butyl}-2-anthracenecarboxamide hydrochloride]", "values": [
      {"measurement": "pKi", "setting": "[1]", "value": 8.92},
      {"measurement": "pKi", "setting": "[2]", "value": 6.26}
    ]}
  ]
}
